According to patent US20250282785A1, “PYRROLIDINONE DERIVATIVES AS INHIBITORS OF NF KAPPA B INDUCING KINASE” (priority 2022, published 2025):

Key:
[1] = system: p-IKKα levels in L363 (NIK translocated multiple myeloma) cells; experiment: Effect of compounds on p-IKKα levels in L363 cells (AlphaLISA SureFire Ultra); assay type: cell-based; details: Homo sapiens, L-363; L363 cells, BAFF stimulated, MG132, 6 h; average of values; read-out: Assay 2 IC50
Procedure, shortened: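 Phospho-IKKα (Ser 176/180) was quantified by AlphaLISA in lysed L363 cells after 6 h compound exposure (0.3% DMSO, 11 points, 1:3) alongside 250 ng/ml BAFF and 10 uM MG132, following overnight BAFF priming in low-serum DMEM. Duplicate curves were scaled between BAFF/DMSO/MG132 and unstimulated DMSO wells, then fitted sigmoidally for IC50.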

[2] = target: Recombinant Human NF-Kappab-Inducing Kinase (NIK/MAP3K14) (Homo sapiens, UniProt Q99558); experiment: Inhibition of auto-phosphorylation of recombinant human NIK/MAP3K14 (AlphaScreen); assay type: biochemical; details: NIK/MAP3K14 auto-phosphorylation, 5 microM ATP, 1 nM enzyme, 2 h at 25° C.; average of values; read-out: Assay 1 IC50
Procedure, shortened: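 AlphaScreen read-out used anti-phospho-IKK Ser176/180 antibody after 2 h, 25 °C incubation of compound, 1 nM GST-NIK and 5 µM ATP (final DMSO 0.7%). Percent inhibition referenced to high (enzyme) and low (no enzyme, no ATP) controls; sigmoidal curve fitting gave IC50.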

Sequence of Recombinant Human NF-Kappab-Inducing Kinase (NIK/MAP3K14) (Q99558 whole entry): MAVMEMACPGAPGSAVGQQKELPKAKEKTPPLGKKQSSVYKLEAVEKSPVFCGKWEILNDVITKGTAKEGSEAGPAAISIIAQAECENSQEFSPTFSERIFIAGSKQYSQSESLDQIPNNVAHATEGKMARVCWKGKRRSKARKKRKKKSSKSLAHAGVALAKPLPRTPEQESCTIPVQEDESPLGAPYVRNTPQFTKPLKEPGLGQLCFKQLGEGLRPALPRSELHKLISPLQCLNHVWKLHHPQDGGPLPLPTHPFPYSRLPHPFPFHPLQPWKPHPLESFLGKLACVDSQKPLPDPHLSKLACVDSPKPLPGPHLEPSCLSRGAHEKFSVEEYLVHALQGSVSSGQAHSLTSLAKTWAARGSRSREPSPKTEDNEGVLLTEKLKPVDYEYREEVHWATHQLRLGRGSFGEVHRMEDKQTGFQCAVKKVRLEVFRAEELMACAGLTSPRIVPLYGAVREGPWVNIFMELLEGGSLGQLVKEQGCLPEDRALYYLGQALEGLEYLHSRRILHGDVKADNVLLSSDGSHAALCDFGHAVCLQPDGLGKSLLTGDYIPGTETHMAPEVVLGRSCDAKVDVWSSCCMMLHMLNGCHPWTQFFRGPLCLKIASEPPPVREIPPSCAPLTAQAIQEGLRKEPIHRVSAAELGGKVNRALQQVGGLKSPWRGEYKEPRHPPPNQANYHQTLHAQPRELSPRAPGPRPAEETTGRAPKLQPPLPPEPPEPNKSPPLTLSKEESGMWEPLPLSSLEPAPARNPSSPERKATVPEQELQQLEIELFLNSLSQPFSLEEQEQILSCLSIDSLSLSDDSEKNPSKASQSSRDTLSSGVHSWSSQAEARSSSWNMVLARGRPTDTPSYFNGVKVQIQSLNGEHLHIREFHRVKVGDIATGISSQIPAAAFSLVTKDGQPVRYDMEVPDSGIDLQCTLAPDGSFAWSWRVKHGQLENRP

Row | Structure (SMILES) | IC50 [1] [nM] | IC50 [2] [nM]
1 | CN1CC[C@@](O)(c2cc(-c3cccc(-c4cc(-c5ccnn5C)cc(C(N)=O)n4)c3)no2)C1=O [Example 182, (R)-6-(3-(5-(3-Hydroxy-1-methyl-2-oxopyrrolidin-3-yl)isoxazol-3-yl)phenyl)-4-(1-methyl-1H-pyrazol-5-yl)picolinamide] | > 501 | < 100
2 | CN1CC[C@@](O)(c2cc(-c3cccc(-c4cc(-c5ccns5)cc(C(N)=O)n4)c3)no2)C1=O [Example 183, (R)-6-(3-(5-(3-Hydroxy-1-methyl-2-oxopyrrolidin-3-yl)isoxazol-3-yl)phenyl)-4-(isothiazol-5-yl)picolinamide] | > 501 | < 100
3 | CN1CC[C@@](O)(c2cc(-c3cccc(-c4cc(-c5cncs5)cc(C(N)=O)n4)c3)no2)C1=O [Example 184, (R)-6-(3-(5-(3-Hydroxy-1-methyl-2-oxopyrrolidin-3-yl)isoxazol-3-yl)phenyl)-4-(thiazol-5-yl)picolinamide] | 100 to 500 | < 100
4 | CN1CC[C@@](O)(c2cc(-c3cccc(-c4cc(-c5ccnn5C5CC5)cc(C(N)=O)n4)c3)no2)C1=O [Example 185, (R)-4-(1-Cyclopropyl-1H-pyrazol-5-yl)-6-(3-(5-(3-hydroxy-1-methyl-2-oxopyrrolidin-3-yl)isoxazol-3-yl)phenyl)picolinamide] | > 501 | < 100
5 | Cc1ncc(-c2cc(C(N)=O)nc(-c3cccc(-c4cc([C@]5(O)CCN(C)C5=O)on4)c3)c2)o1 [Example 186, (R)-6-(3-(5-(3-Hydroxy-1-methyl-2-oxopyrrolidin-3-yl)isoxazol-3-yl)phenyl)-4-(2-methyloxazol-5-yl)picolinamide] | 100 to 500 | < 100
6 | CCn1cc(-c2cc(C(N)=O)nc(-c3cccc(-c4cc([C@]5(O)CCN(C)C5=O)on4)c3)c2)c(C)n1 [Example 187, (R)-4-(1-Ethyl-3-methyl-1H-pyrazol-4-yl)-6-(3-(5-(3-hydroxy-1-methyl-2-oxopyrrolidin-3-yl)isoxazol-3-yl)phenyl)picolinamide] | 100 to 500 | < 100
7 | CCn1nc(C(F)(F)F)cc1-c1cc(C(N)=O)nc(-c2cccc(-c3cc([C@]4(O)CCN(C)C4=O)on3)c2)c1 [Example 188, (R)-4-(1-Ethyl-3-(trifluoromethyl)-1H-pyrazol-5-yl)-6-(3-(5-(3-hydroxy-1-methyl-2-oxopyrrolidin-3-yl)isoxazol-3-yl)phenyl)picolinamide] | > 501 | < 100
8 | COCCn1cc(-c2cc(C(N)=O)nc(-c3cccc(-c4cc([C@]5(O)CCN(C)C5=O)on4)c3)c2)cn1 [Example 189, (R)-6-(3-(5-(3-Hydroxy-1-methyl-2-oxopyrrolidin-3-yl)isoxazol-3-yl)phenyl)-4-(1-(2-methoxyethyl)-1H-pyrazol-4-yl)picolinamide] | 100 to 500 | < 100
9 | CN1CC[C@@](O)(c2cc(-c3cccc(-c4cc(-c5c[nH]nc5C5CC5)cc(C(N)=O)n4)c3)no2)C1=O [Example 190, (R)-4-(3-Cyclopropyl-1H-pyrazol-4-yl)-6-(3-(5-(3-hydroxy-1-methyl-2-oxopyrrolidin-3-yl)isoxazol-3-yl)phenyl)picolinamide] | > 501 | < 100
10 | COc1ncc(-c2cc(C(N)=O)nc(-c3cccc(-c4cc([C@]5(O)CCN(C)C5=O)on4)c3)c2)s1 [Example 191, (R)-6-(3-(5-(3-Hydroxy-1-methyl-2-oxopyrrolidin-3-yl)isoxazol-3-yl)phenyl)-4-(2-methoxythiazol-5-yl)picolinamide] | 100 to 500 | < 100
11 | Cc1cn(-c2cccc(-c3cc([C@]4(O)CCN(C)C4=O)on3)c2)nc1C(N)=O [Example 192, (R)-1-(3-(5-(3-Hydroxy-1-methyl-2-oxopyrrolidin-3-yl)isoxazol-3-yl)phenyl)-4-methyl-1H-pyrazole-3-carboxamide] | > 501 | < 100
12 | CN1CC[C@@](O)(c2cc(-c3cccc(-n4ccc(C(N)=O)n4)c3)no2)C1=O [Example 193, (R)-1-(3-(5-(3-Hydroxy-1-methyl-2-oxopyrrolidin-3-yl)isoxazol-3-yl)phenyl)-1H-pyrazole-3-carboxamide] | > 501 | < 100
13 | CN1CC[C@@](O)(c2cc(-c3cccc(-n4cc(C(N)=O)cn4)n3)no2)C1=O [Example 194, (R)-1-(6-(5-(3-Hydroxy-1-methyl-2-oxopyrrolidin-3-yl)isoxazol-3-yl)pyridin-2-yl)-1H-pyrazole-4-carboxamide] | > 501 | > 501
14 | CN1CC[C@@](O)(c2cc(-c3cccc(-n4cc(C(N)=O)c(N)n4)n3)no2)C1=O [Example 195, (R)-3-Amino-1-(6-(5-(3-Hydroxy-1-methyl-2-oxopyrrolidin-3-yl)isoxazol-3-yl)pyridin-2-yl)-1H-pyrazole-4-carboxamide] | > 501 | < 100
15 | CN1CC[C@@](O)(c2cc(-c3cccc(-c4cccc5c(=O)[nH]ccc45)n3)no2)C1=O [Example 196, (R)-5-(6-(5-(3-Hydroxy-1-methyl-2-oxopyrrolidin-3-yl)isoxazol-3-yl)pyridin-2-yl)isoquinolin-1(2H)-one] | > 501 | < 100
16 | CN1CC[C@@](O)(c2cc(-c3cccc(-c4cccc5c(=O)[nH]cnc45)c3)no2)C1=O [Example 197, (R)-8-(3-(5-(3-Hydroxy-1-methyl-2-oxopyrrolidin-3-yl)isoxazol-3-yl)phenyl)quinazolin-4(3H)-one] | > 501 | > 501
17 | CN1CC[C@@](O)(c2cc(-c3cccc(-c4cc(C(N)=O)ccn4)n3)no2)C1=O [Example 198, (R)-6′-(5-(3-Hydroxy-1-methyl-2-oxopyrrolidin-3-yl)isoxazol-3-yl)-[2,2′-bipyridine]-4-carboxamide] | > 501 | 100 to 500
18 | CN1CC[C@@](O)(c2cc(-c3cccc(-c4nc(C(N)=O)cs4)c3)no2)C1=O [Example 204, (R)-2-(3-(5-(3-Hydroxy-1-methyl-2-oxopyrrolidin-3-yl)isoxazol-3-yl)phenyl)thiazole-4-carboxamide] | > 501 | < 100
19 | CN1CC[C@@](O)(c2cc(-c3cccc(-c4csc(C(N)=O)n4)c3)no2)C1=O [Example 205, (R)-4-(3-(5-(3-Hydroxy-1-methyl-2-oxopyrrolidin-3-yl)isoxazol-3-yl)phenyl)thiazole-2-carboxamide] | > 501 | < 100
20 | CN1CC[C@@](O)(c2cc(-c3cccc(-c4nc(C(N)=O)c(N)s4)c3)no2)C1=O [Example 206, (R)-5-Amino-2-(3-(5-(3-hydroxy-1-methyl-2-oxopyrrolidin-3-yl)isoxazol-3-yl)phenyl)thiazole-4-carboxamide] | < 100 | < 100
21 | CN1CC[C@@](O)(c2cc(-c3cccc(-c4ccc(C(N)=O)o4)c3)no2)C1=O [Example 207, (R)-5-(3-(5-(3-Hydroxy-1-methyl-2-oxopyrrolidin-3-yl)isoxazol-3-yl)phenyl)furan-2-carboxamide] | > 501 | < 100
22 | CN1CC[C@@](O)(c2cc(-c3cccc(-c4nc(C(N)=O)c(C5CC5)s4)c3)no2)C1=O [Example 208, (R)-5-Cyclopropyl-2-(3-(5-(3-hydroxy-1-methyl-2-oxopyrrolidin-3-yl)isoxazol-3-yl)phenyl)thiazole-4-carboxamide] | 100 to 500 | < 100
23 | CNc1sc(-c2cccc(-c3cc([C@]4(O)CCN(C)C4=O)on3)c2)nc1C(N)=O [Example 209, (R)-2-(3-(5-(3-Hydroxy-1-methyl-2-oxopyrrolidin-3-yl)isoxazol-3-yl)phenyl)-5-(methylamino)thiazole-4-carboxamide] | < 100 | < 100
24 | CN1CC[C@@](O)(c2cc(-c3cccc(-c4nc(C(N)=O)c(NC5COC5)s4)c3)no2)C1=O [Example 210, (R)-2-(3-(5-(3-Hydroxy-1-methyl-2-oxopyrrolidin-3-yl)isoxazol-3-yl)phenyl)-5-(oxetan-3-ylamino)thiazole-4-carboxamide] | < 100 | < 100
25 | CN1CC[C@@](O)(c2cc(-c3cccc(-c4nc(C(N)=O)c(Nc5cnn(C)c5)s4)c3)no2)C1=O [Example 211, (R)-2-(3-(5-(3-Hydroxy-1-methyl-2-oxopyrrolidin-3-yl)isoxazol-3-yl)phenyl)-5-((1-methyl-1H-pyrazol-4-yl)amino)thiazole-4-carboxamide] | < 100 | < 100
26 | CN1CC[C@@](O)(c2cc(-c3cccc(-c4ncc(C(N)=O)s4)c3)no2)C1=O [Example 212, (R)-2-(3-(5-(3-hydroxy-1-methyl-2-oxopyrrolidin-3-yl)isoxazol-3-yl)phenyl)thiazole-5-carboxamide] | > 501 | > 501
27 | COc1ncccc1Nc1sc(-c2cccc(-c3cc([C@]4(O)CCN(C)C4=O)on3)c2)nc1C(N)=O [Example 213, (R)-2-(3-(5-(3-Hydroxy-1-methyl-2-oxopyrrolidin-3-yl)isoxazol-3-yl)phenyl)-5-((2-methoxypyridin-3-yl)amino)thiazole-4-carboxamide] | < 100 | < 100
28 | CN1CC[C@@](O)(c2cc(-c3cccc(-c4nc(C(N)=O)c(Br)s4)c3)no2)C1=O [Example 215, (R)-5-Bromo-2-(3-(5-(3-hydroxy-1-methyl-2-oxopyrrolidin-3-yl)isoxazol-3-yl)phenyl)thiazole-4-carboxamide] | > 501 | < 100
